Patent US20050288379A1, “Benzoquinone compounds as anti-cancer agents” (priority 2004, published 2005)

System: Human cancer cell lines Eca-109, AGS, BGC-823, DU145, SPC-A-1, Caco-2, LS-174T, A375, Raji, MCF-7, Bcap-37, HepG2
Test: In vitro MTT assay of inhibition of cancer cell growth
Format: cell-based
Details: 12 human cancer cell lines, 48 hrs incubation, IqA 0.3-100 μg/ml, IqB 0.03-10 μg/ml, absorbance 492 nm, IC50 values calculated but not given
Protocol: An in vitro assay was conducted to evaluate the efficacy of IqA and IqB in inhibiting the growth of cancer cells.
Human cancer cell lines, i.e., Eca-109 (esophagus carcinoma cell line), AGS and BGC-823 (gastric adenocarcinoma cell lines), DU145 (prostate carcinoma cell line), SPC-A-1 (lung adenocarcinoma cell line), Caco-2 and LS-174T (colonic carcinoma cell lines), A375 (malignant melanoma cell line), Raji (Burkitt's lymphoma cell line), MCF-7 and Bcap-37 (breast carcinoma cell lines), HepG2 (hepatoma cell line), were purchased from the Cell Bank of Shanghai Institute of Cell Biology, Chinese Academy of Sciences, and cultured in Iscove's Modified Dulbecco's Medium (IMDM) containing 10% fetal bovine serum (FBS) in an incubator at 37° C. under 5% CO2. Cells of 70-80% confluence were trypsinized, resuspended in IMDM medium containing 10% FBS at 1×10^5 cells/ml, and seeded in 96-well plates (100 μl in each well). The plates were incubated at 37° C. under 5% CO2 overnight.
IqA and IqB were provided by Shandong Xinhua Pharmaceutical CO. Ltd. IqA and IqB stock solutions were prepared at the concentrations of 10 mg/ml and 1 mg/ml in dimethyl sulfoxide (DMSO), respectively. The IqA solution was diluted with the growth medium into a series of solutions at different concentrations. […]
150 μl of DMSO was added to each well. […] Absorbance was measured at 492 nm using a microplate reader. […]

Compound	inhibition of the proliferation of cancer cells
CCCCCC/C=C\CCCCCCCCCC1=CC(=O)C=C(OC)C1=O [IqA, irisqinone A]	effectively inhibited the proliferation
CCCCCCCCCCCCCCCCCC1=CC(=O)C=C(OC)C1=O [IqB, irisquinone B]	effectively inhibited the proliferation
